Laboratory results published in US20070142341A1, “Use of steroid derivatives for the treatment of angiotensin ll related disease e.g. cardiovascular and proliferative disorders” (priority 2003, published 2007).
Values belong to the molecule of their own block, whether it stands above or below them.

Experiments:
[1] = test system: rat aortic smooth muscle cells (RASMC); assay: 3H-methylthymidine incorporation into rat aortic smooth muscle cells stimulated with Ang II; type: cell-based; details: for Tritiated thymidine uptake / Effect on tritium incorporation induced by Ang II: 48 hours; for Tritiated thymidine uptake: serum-free medium, control 57.6, Ang II alone 87.1; for Effect on tritium incorporation induced by Ang II: Ang II 10^−7 M
Description: (§1) Aortic smooth muscle cells (ASMCs) were isolated from rat thoracic and abdominal artery (RASMC) and bovine aorta (BASMC) by the media explant method and cultured over several passages.
(§2) Segments of both abdominal and thoracic aortas were obtained from rats by careful dissection from killed rats. Segments of aorta were obtained from calves under anaesthesia. The segments of aorta were placed in a depression slide containing tissue culture medium, after which the adventitia and the outer portion of each segment was carefully removed under a dissecting microscope. The remaining inner portion of the tissue and the intima were removed to a separate dissecting dish and washed several times with fresh culture medium. At this point each segment was cut into approximately 1 mm squares and placed on 25 cm^2 tissue culture flask. The flasks were loosely capped and placed in a humidified CO2 incubator After two hours, 4 ml of RPMI-1640 culture medium supplemented with 100 units/ml of penicillin, […] streptomycin, […] L-glutamine and 20% […] was carefully added to the flasks without dislodging the tissue. Samples were fed with fresh medium after one week. The cells from the explants were relatively confluent within a period of approximately 2 weeks. They were then rinsed with PBS, and subsequently trypsinized with a solution of 0.125% trypsin and 0.02% EDTA in PBS for 1-2 min al 37° C. The resulting suspension of cells was pipetted into 75 cm^2 tissue culture flasks containing 10 ml culture medium and incubated as above.
(§3) Experiments were performed with cells from passages 3 to 5.
^3H-methylthymidine incorporation into rat aortic smooth muscle cells (RASMC). Quiescent RASMC (0.3×10^5/ml/well) were incubated with serum-free medium (SFM) containing Ang II (10^−7 M) with or without different concentrations of trilostane for 48 hours. The results are shown in Table 1. ^3H-methylthymidine incorporation into RASMC was increased in the Ang II treated group.
Using the same tritiated thymidine uptake methodology as for Example 1, the actions of Losartan on angiotensin II-stimulated cell proliferation were tested in the presence and absence of trilostane.

[2] = test system: LV dysfunction and remodeling; details: dogs with chronic heart failure, 3 months of treatment, cited from earlier work
myocardial injury = details: rat model, angiotensin-induced injury, treatment with eplerenone; cited from earlier work
[3] = test system: severe congestive heart failure (CHF); details: patients with severe congestive heart failure, given in addition to ACE inhibitors; cited from earlier work
[4] = test system: vascular smooth muscle cells; assay: Fura-2 [Ca2+]i signal response to angiotensin II in smooth muscle cells cultured from trilostane treated rats; type: cell-based, rat; set-up: key: + = calcium response; − = no response; details: cells (TTSMC) from rats given trilostane 4 mg/kg per day for 5 days
Method: Male Wistar rats (˜500 g) were treated with 0.1 ml ethanol in cotton seed oil with trilostane 4 mg/kg per day for 5 days. Control animals received the vehicle alone. Animals were then treated with 0.1 ml (500 u) heparin IP, before killing by stunning and cervical dislocation. Blood was collected from neck vessels, centrifuged to obtain plasma which was stored at −20° C. until required for steroid analysis. Corticosterone and aldosterone concentrations were assayed using commercially available kits (Diagnostic Systems Laboratories Inc., Webster, Tex., USA). Circulating concentrations of corticosterone (FIG. 3 (a)) and aldosterone (FIG. 3(b)) are shown for control animals and animals receiving trilostane treatment. […] Primary cultures were established of RASMC obtained from trilostane treated and control animals, using the established methods. For [Ca^2+]i measurement, the cells were loaded with 1 μM fura-2 for 30 min in medium-modified Krebs-Ringer bicarbonate solution (3.6 mM K^+, 1.2 mM Ca^2+, 0.5 mM Mg^2+, 5 mM Hepes and 20 mM HCO^−) at 37° C. For simultaneous measurements of measuring the fluorescence of fura-2, the cells plated on coverslips were mounted on the stage of an inverted microscope (Zeiss) in a modified Krebs-Ringer bicarbonate solution. The excitation wavelengths were 340 and 380 nm, and emission was detected at 510 nm. [Ca^2+]i was calculated from the ratio of fluorescence intensities at excitation wavelengths of 340 and 380 nm. Fields of cells, ˜10 cells per field, were tested from control and trilostane treated animals. The results are shown in Table 3 and FIGS. (c) and (d) wherein the arrow indicates the time of application of angiotensin II. Characteristic calcium signals obtained by stimulation of vascular smooth muscle cells from control animals (FIG. 3(c)) and trilostane treated animals (FIG. 3(d)) by 10 nmol/L angiotensin II.

AT1 receptor mRNA = AT1 receptor mRNA expression by RT-PCR and real-time quantitative RT-PCR in RASMC (FIG. 4); type: cell-based, rat; details: 48 hours, trilostane added to angiotensin II, FIG. 4, P<0.01
Method: […] Real-time RT-PCR was performed using Brilliant SYBR Green QRT-PCR Master Mix Kit, 1-step based on real-time detection of accumulated fluorescence (M×300P, Stratagene, Amsterdam). Results are means, SEM too small to show. **=P<0.01.

[5] = test system: circulating adrenal steroids; assay: Circulating plasma adrenal steroids in whole, healthy rats (radioimmunoassay, FIG. 1); type: in vivo, rat
Method: Trilostane has been used in treatments that are aimed at suppressing adrenal steroid secretion. Examples of adrenal steroids include cortisol, aldosterone and corticosterone. In practice, in patients with normally functioning adrenals, circulating adrenal steroids are reduced only at high trilostane dosage levels upwards of 8 to 10 mg/kg/day equivalent, and this is the regime most frequently used (Beardwell et al. 1985, Clin Endocrinol (Oxf), 23, 413-21, Engelhardt and Weber 1994, J Steroid Biochem Mol Biol, 40, 261-7). […] This can be shown by testing the levels of circulating adrenal steroids pre- and post-treatment and assessing whether or not the concentrations of adrenal steroids have been reduced. The levels of circulating adrenal steroids in the plasma can be tested by collecting circulating blood from a vein. Plasma is obtained by centrifugation and plasma steroid (for example, cortisol and aldesterone for humans, corticosterone and aldosterone in rats) is assayed using a conventional radioimmunoassay. Suitable corticosterone radioammunoassay kits are available from Amersham Biosciences UK Limited. Suitable aldosterone radioimmunoassay kits are available from Diagnostic Products Corporation.

[6] = test system: circulating adrenal steroids; details: patients with normally functioning adrenals; cited from earlier work
[7] = test system: circulating adrenal steroids; assay: Circulating corticosterone and aldosterone in male Wistar rats after 5 days of trilostane (FIG. 3a, b); type: in vivo, rat; details: trilostane 4 mg/kg per day for 5 days, versus vehicle control
Method: Male Wistar rats (˜500 g) were treated with 0.1 ml ethanol in cotton seed oil with trilostane 4 mg/kg per day for 5 days. Control animals received the vehicle alone. Animals were then treated with 0.1 ml (500 u) heparin IP, before killing by stunning and cervical dislocation. Blood was collected from neck vessels, centrifuged to obtain plasma which was stored at −20° C. until required for steroid analysis. Corticosterone and aldosterone concentrations were assayed using commercially available kits (Diagnostic Systems Laboratories Inc., Webster, Tex., USA). Circulating concentrations of corticosterone (FIG. 3 (a)) and aldosterone (FIG. 3(b)) are shown for control animals and animals receiving trilostane treatment.

[8] = test system: rat aortic smooth muscle cells (RASMC); assay: Cell count for rat aortic smooth muscle cells stimulated with Ang II; type: cell-based; details: 48 hours; for Cell Count: 20% FBS RPMI-1640, control 12.00 × 10^4, Ang II alone 21.30 × 10^4; for Effect on Ang II stimulated increase in cell number: Ang II 10^−7 M
Description: as §1, §2, §3
Cell count for rat aortic smooth muscle cells (RASMC). RASMC (0.5×10^5/ml/well) were incubated with 20% FBS RPMI-1640 medium containing Ang II (10^−7 M) with or without different concentrations of trilostane for 48 hours.

[9] = Ang II 10^−7 M + trilostane 10^−5 M
[10] = Ang II 10^−7 M + trilostane 10^−6 M
[11] = Ang II 10^−7 M + trilostane 10^−7 M
[12] = Ang II 10^−7 M + trilostane 10^−8 M
[13] = Ang II 10^−7 M + trilostane 10^−9 M
[14] = trilostane at 10^−6 and 10^−5 M
[15] = trilostane at 10^−9, 10^−8 and 10^−7 M

SMILES: CCCCc1nc(Cl)c(CO)n1Cc1ccc(-c2ccccc2-c2nn[nH]n2)cc1 [Losartan]
- Action on angiotensin II-stimulated cell proliferation (tritiated thymidine uptake) ([1]; Losartan with angiotensin II, absence of trilostane, FIG. 2): significantly eliminated the stimulatory action of angiotensin II
- Cell proliferation (tritiated thymidine uptake) compared with controls ([1]; losartan alone group, FIG. 2): not different from controls

SMILES: COC(=O)[C@@H]1CC2=CC(=O)CC[C@]2(C)[C@@]23O[C@@H]2C[C@@]2(C)[C@@H](CC[C@@]24CCC(=O)O4)[C@H]13 [eplerenone]
- Reduction in cardiomyocyte cross-sectional area ([2]; compared with control): 28%
- Reduction of volume fraction of reactive interstitial fibrosis ([2]; compared with control): 37%
- Reduction of volume fraction of replacement fibrosis ([2]; compared with control): 34%
- LV end-diastolic wall stress ([2]; increased significantly in control dogs): decreased significantly
- End-diastolic volume, end-systolic volume, and EF ([2]; volumes increased significantly in control dogs): remained unchanged
- COX-2 expression in the media of coronary arteries (myocardial injury): markedly attenuated
- Myocardial injury (myocardial injury): markedly attenuated
- Osteopontin expression in the media of coronary arteries (myocardial injury): markedly attenuated

SMILES: CC(=O)S[C@@H]1CC2=CC(=O)CC[C@]2(C)[C@H]2CC[C@@]3(C)[C@@H](CC[C@@]34CCC(=O)O4)[C@H]12 [spironolactone]
- Mortality [3]: significantly reduced mortality

- mRNA transcription of the gene coding for the angiotensin II type 1 receptor (AT1) (AT1 receptor mRNA): reduced even further
SMILES: C[C@]12CC[C@H]3[C@@H](CC[C@@]45O[C@@H]4C(O)=C(C#N)C[C@]35C)[C@@H]1CC[C@@H]2O [trilostane, (4α,5α-17β)-4,5-epoxy-3,17-dihydroxyandrost-2-ene-2carbonitrile]
- Calcium signal response to angiotensin II ([4]; Ang II 10^−6 M): +
- Calcium signal response to angiotensin II ([4]; Ang II 10^−7 M): −
- Calcium signal response to angiotensin II ([4]; Ang II 10^−8 M, control cells (NSMC) +): −
- Calcium signal response to angiotensin II ([4]; Ang II 10^−9 M, control cells (NSMC) −): −
- Calcium signal response to angiotensin II ([4]; Ang II 10^−10 M, control cells (NSMC) −): −
- Calcium signal response to angiotensin II ([4]; Ang II 10^−11 M, control cells (NSMC) −): −
- Circulating corticosterone levels ([5]; rats, trilostane 4 mg/kg/day or 8 mg/kg/day): Neither dose (4 mg/kg/day or 8 mg/kg/day) affects circulating corticosterone levels
- Concentrations of aldosterone in circulating plasma ([5]; rats, trilostane 4 mg/kg/day, FIG. 1b): does not reduce concentrations of aldosterone in circulating plasma
- Concentrations of aldosterone in circulating plasma ([5]; whole, healthy rats, trilostane 8 mg/kg/day, FIG. 1a): reduces concentrations of aldosterone in circulating plasma
- Dosage level at which circulating adrenal steroids are reduced [6]: 8 to 10 mg/kg/day
- Tritiated thymidine uptake [1, 9]: 42.7 dpm
- Tritiated thymidine uptake [1, 10]: 74.9 dpm
- Tritiated thymidine uptake [1, 11]: 89.1 dpm
- Tritiated thymidine uptake [1, 12]: 101.88 dpm
- Tritiated thymidine uptake [1, 13]: 96.7 dpm
- Cell proliferation (tritiated thymidine uptake) ([1]; trilostane additionally present with Losartan, FIG. 2, P<0.05 / P<0.01): decreased cell proliferation still further to less than control values
- Effect on tritium incorporation induced by Ang II [1, 14]: inhibited
- Effect on tritium incorporation induced by Ang II [1, 15]: not at 10^−9, 10^−8 and 10^−7 M
- Circulating concentrations of corticosterone ([7]; FIG. 3(a)): no significant differences
- Circulating concentrations of aldosterone ([7]; FIG. 3(b)): no significant differences
- Cell Count [8, 9]: 14.25 × 10^4
- Cell Count [8, 10]: 14.00 × 10^4
- Cell Count [8, 11]: 20.00 × 10^4
- Cell Count [8, 12]: 21.95 × 10^4
- Cell Count [8, 13]: 21.00 × 10^4
- Effect on Ang II stimulated increase in cell number [8, 14]: inhibited
- Effect on Ang II stimulated increase in cell number [8, 15]: not at 10^−9, 10^−8 and 10^−7 M
